The source made the active and inactive calls. The rule behind the calls is not given here.
Assays:
MDA-MB-231 [1] = experiment: Growth inhibition of human MDA-MB-231 cells assessed as cell growth at 10^-6 M incubated for 48 hrs by sulforhodamine B assay relative to control; assay type: functional; settings: MDA-MB-231, 48 h, read-out: Activity
NCI-H226 [2] = experiment: Growth inhibition of human NCI-H226 cells incubated for 48 hrs by sulforhodamine B assay; assay type: functional; settings: NCI-H226, 48 h
SK-MEL-2 [3] = experiment: Growth inhibition of human SK-MEL-2 cells assessed as cell growth at 10^-8 M incubated for 48 hrs by sulforhodamine B assay relative to control; assay type: functional; settings: SK-MEL-2, 48 h, read-out: Activity
LOX IMVI = experiment: Growth inhibition of human LOXIMVI cells assessed as cell growth at 10^-4 M incubated for 48 hrs by sulforhodamine B assay relative to control; assay type: functional; settings: read-out: Activity
NCI-H522 = experiment: Growth inhibition of human NCI-H522 cells incubated for 48 hrs by sulforhodamine B assay; assay type: functional; settings: NCI-H522, 48 h
SF-539 = experiment: Growth inhibition of human SF539 cells assessed as cell growth at 10^-4 M incubated for 48 hrs by sulforhodamine B assay relative to control; assay type: functional; settings: SF-539, 48 h, read-out: Activity
HL-60 [4] = experiment: Induction of apoptosis in human HL60 cells assessed as increase in caspase-9 expression by qRT-PCR method; assay type: functional, cell-based
SF-295 [5] = experiment: Growth inhibition of human SF295 cells assessed as cell growth at 10^-5 M incubated for 48 hrs by sulforhodamine B assay relative to control; assay type: functional; settings: SF-295, 48 h, read-out: Activity
SNB-75 [6] = experiment: Growth inhibition of human SNB75 cells incubated for 48 hrs by sulforhodamine B assay; assay type: functional; settings: SNB-75, 48 h
RXF 393 [7] = experiment: Growth inhibition of human RXF393 cells assessed as cell growth at 10^-8 M incubated for 48 hrs by sulforhodamine B assay relative to control; assay type: functional; settings: RXF 393, 48 h, read-out: Activity
RXF 393 [8] = experiment: Growth inhibition of human RXF393 cells assessed as cell growth at 10^-5 M incubated for 48 hrs by sulforhodamine B assay relative to control; assay type: functional; settings: RXF 393, 48 h, read-out: Activity
EKVX = experiment: Growth inhibition of human EKVX cells assessed as cell growth at 10^-7 M incubated for 48 hrs by sulforhodamine B assay relative to control; assay type: functional; settings: read-out: Activity
TK-10 = experiment: Growth inhibition of human TK10 cells assessed as cell growth at 10^-5 M incubated for 48 hrs by sulforhodamine B assay relative to control; assay type: functional; settings: TK-10, 48 h, read-out: Activity
SF-295 [9] = experiment: Growth inhibition of human SF295 cells assessed as cell growth at 10^-6 M incubated for 48 hrs by sulforhodamine B assay relative to control; assay type: functional; settings: SF-295, 48 h, read-out: Activity
K562 = experiment: Growth inhibition of human K562 cells assessed as cell growth at 10^-6 M incubated for 48 hrs by sulforhodamine B assay relative to control; assay type: functional; settings: K562, 48 h, read-out: Activity
SNB-75 [10] = experiment: Growth inhibition of human SNB75 cells assessed as cell growth at 10^-8 M incubated for 48 hrs by sulforhodamine B assay relative to control; assay type: functional; settings: SNB-75, 48 h, read-out: Activity
MDA-MB-231 [11] = experiment: Growth inhibition of human MDA-MB-231 cells incubated for 48 hrs by sulforhodamine B assay; assay type: functional; settings: MDA-MB-231, 48 h
SW-620 = experiment: Growth inhibition of human SW620 cells assessed as cell growth at 10^-5 M incubated for 48 hrs by sulforhodamine B assay relative to control; assay type: functional; settings: SW-620, 48 h, read-out: Activity
IGROV-1 = experiment: Growth inhibition of human IGROV1 cells assessed as cell growth at 10^-5 M incubated for 48 hrs by sulforhodamine B assay relative to control; assay type: functional; settings: IGROV-1, 48 h, read-out: Activity
NCI-H226 [12] = experiment: Growth inhibition of human NCI-H226 cells assessed as cell growth at 10^-6 M incubated for 48 hrs by sulforhodamine B assay relative to control; assay type: functional; settings: NCI-H226, 48 h, read-out: Activity
OVCAR-5 = experiment: Growth inhibition of human OVCAR5 cells assessed as cell growth at 10^-6 M incubated for 48 hrs by sulforhodamine B assay relative to control; assay type: functional; settings: OVCAR-5, 48 h, read-out: Activity
NCI-H460 = experiment: Growth inhibition of human NCI-H460 cells assessed as cell growth at 10^-5 M incubated for 48 hrs by sulforhodamine B assay relative to control; assay type: functional; settings: NCI-H460, 48 h, read-out: Activity
SK-OV-3 = experiment: Growth inhibition of human SKOV3 cells assessed as cell growth at 10^-5 M incubated for 48 hrs by sulforhodamine B assay relative to control; assay type: functional; settings: SK-OV-3, 48 h, read-out: Activity
HL-60 [13] = experiment: Cell cycle arrest in human HL60 cells assessed as accumulation at G2-phase by propidium iodide staining based flow cytometry (reference value: 6.58%); assay type: functional
T47D = experiment: Growth inhibition of human T47D cells assessed as cell growth at 10^-8 M incubated for 48 hrs by sulforhodamine B assay relative to control; assay type: functional; settings: read-out: Activity
RXF 393 [14] = experiment: Growth inhibition of human RXF393 cells assessed as cell growth at 10^-6 M incubated for 48 hrs by sulforhodamine B assay relative to control; assay type: functional; settings: RXF 393, 48 h, read-out: Activity
SK-MEL-2 [15] = experiment: Growth inhibition of human SK-MEL-2 cells incubated for 48 hrs by sulforhodamine B assay; assay type: functional; settings: SK-MEL-2, 48 h
SF-268 = experiment: Growth inhibition of human SF268 cells assessed as cell growth at 10^-5 M incubated for 48 hrs by sulforhodamine B assay relative to control; assay type: functional; settings: SF-268, 48 h, read-out: Activity
MCF7 [16] = experiment: Growth inhibition of human MCF7 cells assessed as cell growth at 10^-6 M incubated for 48 hrs by sulforhodamine B assay relative to control; assay type: functional; settings: MCF7, 48 h, read-out: Activity
MCF7 [17] = experiment: Growth inhibition of human MCF7 cells assessed as cell growth at 10^-4 M incubated for 48 hrs by sulforhodamine B assay relative to control; assay type: functional; settings: MCF7, 48 h, read-out: Activity
NCI-H23 = experiment: Growth inhibition of human NCI-H23 cells assessed as cell growth at 10^-7 M incubated for 48 hrs by sulforhodamine B assay relative to control; assay type: functional; settings: NCI-H23, 48 h, read-out: Activity
[18] = read-out: LC50 (the source's name)
[19] = read-out: pLC50 (the source's name) (converted)

## CCS/C(Nc1ccccc1)=C(\C#N)C(=O)N/N=C\c1ccc(Cl)cc1Cl
MDA-MB-231 [1]
  growth at 1 µM: 89%
NCI-H226 [2]; read-out: GI50
  GI50: 4 µM
NCI-H226 [2]; [18]
  CC50: > 100 µM
NCI-H226 [2]; read-out: TGI
  TGI: > 100 µM
NCI-H226 [2]; read-out: pGI50 (converted)
  GI50: 3.98 µM
NCI-H226 [2]; [19]
  CC50: > 100 µM
NCI-H226 [2]; read-out: pTGI (converted)
  TGI: > 100 µM
SK-MEL-2 [3]
  growth at 0.01 µM: 106%
LOX IMVI
  growth at 100 µM: 22%
NCI-H522; read-out: GI50
  GI50: 1.84 µM
NCI-H522; [18]
  CC50: > 100 µM
NCI-H522; read-out: pGI50 (converted)
  GI50: 1.82 µM
NCI-H522; [19]
  CC50: > 100 µM
SF-539
  growth at 100 µM: -6%
HL-60 [4]
  Activity: Active
SF-295 [5]
  growth at 10 µM: 15%
SNB-75 [6]; read-out: GI50
  GI50: 2.15 µM
SNB-75 [6]; [18]
  CC50: > 100 µM
SNB-75 [6]; read-out: TGI
  TGI: 9.37 µM
SNB-75 [6]; read-out: pGI50 (converted)
  GI50: 2.14 µM
SNB-75 [6]; [19]
  CC50: > 100 µM
SNB-75 [6]; read-out: pTGI (converted)
  TGI: 9.33 µM
RXF 393 [7]
  growth at 0.01 µM: 93%
RXF 393 [8]
  growth at 10 µM: -5%
EKVX
  growth at 0.1 µM: 88%
TK-10
  growth at 10 µM: 50%
SF-295 [9]
  growth at 1 µM: 80%
K562
  growth at 1 µM: 47%
SNB-75 [10]
  growth at 0.01 µM: 88%
MDA-MB-231 [11]; read-out: GI50
  GI50: 4.75 µM
MDA-MB-231 [11]; [18]
  CC50: > 100 µM
MDA-MB-231 [11]; read-out: TGI
  TGI: > 100 µM
MDA-MB-231 [11]; read-out: pGI50 (converted)
  GI50: 4.79 µM
MDA-MB-231 [11]; [19]
  CC50: > 100 µM
MDA-MB-231 [11]; read-out: pTGI (converted)
  TGI: > 100 µM
SW-620
  growth at 10 µM: 31%
IGROV-1
  growth at 10 µM: 42%
NCI-H226 [12]
  growth at 1 µM: 85%
OVCAR-5
  growth at 1 µM: 101%
NCI-H460
  growth at 10 µM: 9%
SK-OV-3
  growth at 10 µM: 19%
HL-60 [13]
  Activity: 22.18%
T47D
  growth at 0.01 µM: 102%
RXF 393 [14]
  growth at 1 µM: 75%
SK-MEL-2 [15]; read-out: GI50
  GI50: 3.24 µM
SK-MEL-2 [15]; [18]
  CC50: > 100 µM
SK-MEL-2 [15]; read-out: TGI
  TGI: 43.6 µM
SK-MEL-2 [15]; read-out: pGI50 (converted)
  GI50: 3.24 µM
SK-MEL-2 [15]; [19]
  CC50: > 100 µM
SK-MEL-2 [15]; read-out: pTGI
  TGI: 43.7 µM
SF-268
  growth at 10 µM: 42%
MCF7 [16]
  growth at 1 µM: 83%
MCF7 [17]
  growth at 100 µM: 9%
NCI-H23
  growth at 0.1 µM: 97%

## CCS/C(Nc1ccccc1)=C(\C#N)C(=O)Nc1ccc(OC)cc1
MDA-MB-231 [1]
  growth at 1 µM: 93%
NCI-H226 [2]; read-out: GI50
  GI50: 5.45 µM
NCI-H226 [2]; [18]
  CC50: > 100 µM
NCI-H226 [2]; read-out: TGI
  TGI: 50.7 µM
NCI-H226 [2]; read-out: pGI50 (converted)
  GI50: 5.5 µM
NCI-H226 [2]; [19]
  CC50: > 100 µM
NCI-H226 [2]; read-out: pTGI (converted)
  TGI: 50.1 µM
SK-MEL-2 [3]
  growth at 0.01 µM: 106%
LOX IMVI
  growth at 100 µM: 12%
NCI-H522; read-out: GI50
  GI50: 2.21 µM
NCI-H522; [18]
  CC50: > 100 µM
NCI-H522; read-out: TGI
  TGI: 9.68 µM
NCI-H522; read-out: pGI50 (converted)
  GI50: 2.19 µM
NCI-H522; [19]
  CC50: > 100 µM
NCI-H522; read-out: pTGI (converted)
  TGI: 9.77 µM
SF-539
  growth at 100 µM: -54%
HL-60 [4]
  Activity: Active
SF-295 [5]
  growth at 10 µM: 16%
SNB-75 [6]; read-out: GI50
  GI50: 2.13 µM
SNB-75 [6]; [18]
  CC50: > 100 µM
SNB-75 [6]; read-out: TGI
  TGI: 7.21 µM
SNB-75 [6]; read-out: pGI50 (converted)
  GI50: 2.14 µM
SNB-75 [6]; [19]
  CC50: > 100 µM
SNB-75 [6]; read-out: pTGI (converted)
  TGI: 7.24 µM
RXF 393 [7]
  growth at 0.01 µM: 106%
RXF 393 [8]
  growth at 10 µM: -10%
EKVX
  growth at 0.1 µM: 81%
TK-10
  growth at 10 µM: 66%
SF-295 [9]
  growth at 1 µM: 82%
K562
  growth at 1 µM: 29%
SNB-75 [10]
  growth at 0.01 µM: 94%
MDA-MB-231 [11]; read-out: GI50
  GI50: 4.14 µM
MDA-MB-231 [11]; [18]
  CC50: > 100 µM
MDA-MB-231 [11]; read-out: TGI
  TGI: 36.5 µM
MDA-MB-231 [11]; read-out: pGI50 (converted)
  GI50: 4.17 µM
MDA-MB-231 [11]; [19]
  CC50: > 100 µM
MDA-MB-231 [11]; read-out: pTGI (converted)
  TGI: 36.3 µM
SW-620
  growth at 10 µM: 21%
IGROV-1
  growth at 10 µM: 39%
NCI-H226 [12]
  growth at 1 µM: 88%
OVCAR-5
  growth at 1 µM: 98%
NCI-H460
  growth at 10 µM: 10%
SK-OV-3
  growth at 10 µM: 10%
HL-60 [13]
  Activity: 16.32%
T47D
  growth at 0.01 µM: 99%
RXF 393 [14]
  growth at 1 µM: 82%
SK-MEL-2 [15]; read-out: GI50
  GI50: 3.01 µM
SK-MEL-2 [15]; [18]
  CC50: > 100 µM
SK-MEL-2 [15]; read-out: TGI
  TGI: > 100 µM
SK-MEL-2 [15]; read-out: pGI50 (converted)
  GI50: 3.02 µM
SK-MEL-2 [15]; [19]
  CC50: > 100 µM
SK-MEL-2 [15]; read-out: pTGI
  TGI: > 100 µM
SF-268
  growth at 10 µM: 42%
MCF7 [16]
  growth at 1 µM: 77%
MCF7 [17]
  growth at 100 µM: 6%
NCI-H23
  growth at 0.1 µM: 99%

Reference: ChEMBL document CHEMBL4145553, “Design, synthesis, and biological evaluation of novel amide and hydrazide based thioether analogs targeting Histone deacteylase (HDAC) enzymes” (Eur J Med Chem, 2018)
